In PubChem BioAssay AID1259407 (Chemical Carcinogenesis Research Information System (CCRIS), 2018):
Calls of active or inactive are those of the source. How the calls were made is not given here.

Test system: CCRIS mutagenicity, Ames/micronucleus/aberration tests
Experiment: CCRIS mutagenicity studies
Conditions: Test System: AMES SALMONELLA TYPHIMURIUM
[1] = Strain/Indicator: TA98, Metabolic Activation: NONE, Method: PREINCUBATION
[2] = Strain/Indicator: TA100, Metabolic Activation: NONE, Method: PREINCUBATION
[3] = Strain/Indicator: TA98, Metabolic Activation: RAT, LIVER, S-9, AROCLOR 1254, Method: PREINCUBATION
[4] = Strain/Indicator: TA100, Metabolic Activation: RAT, LIVER, S-9, AROCLOR 1254, Method: PREINCUBATION

Which results are given for `O=[N+]([O-])c1ccc(CNc2ncnc3c2ncn3[C@@H]2O[C@H](CO)[C@@H](O)[C@H]2O)cc1`?
mutagenic call (Strain/Indicator: TA98(1,8-DNP), Metabolic Activation: NONE, Method: PREINCUBATION): inactive; negative; mutagenic call (Strain/Indicator: TA98(1,8-DNP), Metabolic Activation: RAT, LIVER, S-9, PCB, Method: PREINCUBATION): inactive; negative; mutagenic call (Strain/Indicator: TA98(NR), Metabolic Activation: NONE, Method: PREINCUBATION): inactive; negative; mutagenic call (Strain/Indicator: TA98(NR), Metabolic Activation: RAT, LIVER, S-9, PCB, Method: PREINCUBATION): inactive; negative; mutagenic call [1]: inactive; negative; mutagenic call (Strain/Indicator: TA98, Metabolic Activation: RAT, LIVER, S-9, PCB, Method: PREINCUBATION): inactive; negative; mutagenic call (Strain/Indicator: TA100(1,8-DNP), Metabolic Activation: NONE, Method: PREINCUBATION): inactive; negative; mutagenic call (Strain/Indicator: TA100(1,8-DNP), Metabolic Activation: RAT, LIVER, S-9, PCB, Method: PREINCUBATION): inactive; negative; mutagenic call (Strain/Indicator: TA100(NR), Metabolic Activation: NONE, Method: PREINCUBATION): inactive; negative; mutagenic call (Strain/Indicator: TA100(NR), Metabolic Activation: RAT, LIVER, S-9, PCB, Method: PREINCUBATION): inactive; negative; mutagenic call [2]: inactive; negative; mutagenic call (Strain/Indicator: TA100, Metabolic Activation: RAT, LIVER, S-9, PCB, Method: PREINCUBATION): inactive; negative; mutagenic call (Strain/Indicator: YG1020, Metabolic Activation: NONE, Method: PREINCUBATION): active; positive; mutagenic call (Strain/Indicator: YG1020, Metabolic Activation: RAT, LIVER, S-9, PCB, Method: PREINCUBATION): inactive; negative; mutagenic call (Strain/Indicator: YG1021, Metabolic Activation: NONE, Method: PREINCUBATION): active; positive; mutagenic call (Strain/Indicator: YG1021, Metabolic Activation: RAT, LIVER, S-9, PCB, Method: PREINCUBATION): active; positive; mutagenic call (Strain/Indicator: YG1024, Metabolic Activation: NONE, Method: PREINCUBATION): active; positive; mutagenic call (Strain/Indicator: YG1024, Metabolic Activation: RAT, LIVER, S-9, PCB, Method: PREINCUBATION): inactive; negative; mutagenic call (Strain/Indicator: YG1025, Metabolic Activation: NONE, Method: PREINCUBATION): inactive; negative; mutagenic call (Strain/Indicator: YG1025, Metabolic Activation: RAT, LIVER, S-9, PCB, Method: PREINCUBATION): inactive; negative; mutagenic call (Strain/Indicator: YG1026, Metabolic Activation: NONE, Method: PREINCUBATION): inactive; negative; mutagenic call (Strain/Indicator: YG1026, Metabolic Activation: RAT, LIVER, S-9, PCB, Method: PREINCUBATION): inactive; negative; mutagenic call (Strain/Indicator: YG1029, Metabolic Activation: NONE, Method: PREINCUBATION): inactive; negative; mutagenic call (Strain/Indicator: YG1029, Metabolic Activation: RAT, LIVER, S-9, PCB, Method: PREINCUBATION): inactive; negative

Which mutagenic call (Strain/Indicator: TA98, Metabolic Activation: NONE, Method: STANDARD PLATE) does the source give for `O=[N+]([O-])c1cc(NS(=O)(=O)c2cccc3cccnc23)ccc1Cl` here?
The mutagenic call was “inactive; negative”.

What about the mutagenic call (Strain/Indicator: TA98, Metabolic Activation: RAT, LIVER, S-9, AROCLOR 1254, Method: STANDARD PLATE) of the same compound?
The mutagenic call was “inactive; negative”.

What about the mutagenic call (Strain/Indicator: TA100, Metabolic Activation: NONE, Method: STANDARD PLATE) of the same compound?
Its mutagenic call is “inactive; negative”.

And the mutagenic call (Strain/Indicator: TA100, Metabolic Activation: RAT, LIVER, S-9, AROCLOR 1254, Method: STANDARD PLATE)?
Its mutagenic call is “inactive; negative”.

What about the mutagenic call (Strain/Indicator: TA1535, Metabolic Activation: NONE, Method: STANDARD PLATE) of the same compound?
The mutagenic call was “inactive; negative”.

And the mutagenic call (Strain/Indicator: TA1535, Metabolic Activation: RAT, LIVER, S-9, AROCLOR 1254, Method: STANDARD PLATE)?
The mutagenic call was “inactive; negative”.

What about the mutagenic call (Strain/Indicator: TA1537, Metabolic Activation: NONE, Method: STANDARD PLATE) of the same compound?
Its mutagenic call is “inactive; negative”.

And the mutagenic call (Strain/Indicator: TA1537, Metabolic Activation: RAT, LIVER, S-9, AROCLOR 1254, Method: STANDARD PLATE)?
Its mutagenic call is “inactive; negative”.

How did the mutagenic call [1] turn out when `CC(=O)Nc1ccc(S(=O)(=O)Nc2ccccn2)cc1` was run?
Its mutagenic call is “inactive; negative”.

What about the mutagenic call [3] of the same compound?
The mutagenic call was “inactive; negative”.

What about the mutagenic call [2] of the same compound?
The mutagenic call was “inactive; negative”.

And the mutagenic call [4]?
The mutagenic call was “inactive; negative”.

Which mutagenic call (Strain/Indicator: TA98, Metabolic Activation: HAMSTER, LIVER, S-9, AROCLOR 1254, Method: PREINCUBATION) does the source give for `COc1cc(CCCS(=O)(=O)O)ccc1O[C@H](Cc1cccc(OC)c1O)CS(=O)(=O)O` here?
The mutagenic call was “inactive; negative”.

What about the mutagenic call [1] of the same compound?
Its mutagenic call is “inactive; negative”.

What about the mutagenic call [3] of the same compound?
The mutagenic call was “inactive; negative”.

What about the mutagenic call (Strain/Indicator: TA100, Metabolic Activation: HAMSTER, LIVER, S-9, AROCLOR 1254, Method: PREINCUBATION) of the same compound?
The mutagenic call was “inactive; negative”.

What about the mutagenic call [2] of the same compound?
The mutagenic call was “inactive; negative”.

What about the mutagenic call [4] of the same compound?
The mutagenic call was “inactive; negative”.

And the mutagenic call (Strain/Indicator: TA1535, Metabolic Activation: HAMSTER, LIVER, S-9, AROCLOR 1254, Method: PREINCUBATION)?
Its mutagenic call is “inactive; negative”.

What about the mutagenic call (Strain/Indicator: TA1535, Metabolic Activation: NONE, Method: PREINCUBATION) of the same compound?
The mutagenic call was “inactive; negative”.

What about the mutagenic call (Strain/Indicator: TA1535, Metabolic Activation: RAT, LIVER, S-9, AROCLOR 1254, Method: PREINCUBATION) of the same compound?
The mutagenic call was “inactive; negative”.

What about the mutagenic call (Strain/Indicator: TA1537, Metabolic Activation: HAMSTER, LIVER, S-9, AROCLOR 1254, Method: PREINCUBATION) of the same compound?
Its mutagenic call is “inactive; negative”.

And the mutagenic call (Strain/Indicator: TA1537, Metabolic Activation: NONE, Method: PREINCUBATION)?
The mutagenic call was “inactive; negative”.

And the mutagenic call (Strain/Indicator: TA1537, Metabolic Activation: RAT, LIVER, S-9, AROCLOR 1254, Method: PREINCUBATION)?
The mutagenic call was “inactive; negative”.
